Test results taken from BindingDB's records for patent WO2025049746 (Eikon Therapeutics, 2025).

Tests used:
[1] = molecular target: Bifunctional 3'-5' exonuclease/ATP-dependent helicase WRN (Homo sapiens, UniProt Q14191); test: ADP-Glo Kinase Assay
Protocol: ATPase activity was measured using the ADP-Glo Kinase Assay following the manufacturers recommended protocol.

[2] = molecular target: T1, Bifunctional 3'-5' exonuclease/ATP-dependent helicase WRN [480-1251] (UniProt Q14191); test: Biochemical Activity Assays
T1 construct: 480-1251
T1 sequence (Q14191 480-1251): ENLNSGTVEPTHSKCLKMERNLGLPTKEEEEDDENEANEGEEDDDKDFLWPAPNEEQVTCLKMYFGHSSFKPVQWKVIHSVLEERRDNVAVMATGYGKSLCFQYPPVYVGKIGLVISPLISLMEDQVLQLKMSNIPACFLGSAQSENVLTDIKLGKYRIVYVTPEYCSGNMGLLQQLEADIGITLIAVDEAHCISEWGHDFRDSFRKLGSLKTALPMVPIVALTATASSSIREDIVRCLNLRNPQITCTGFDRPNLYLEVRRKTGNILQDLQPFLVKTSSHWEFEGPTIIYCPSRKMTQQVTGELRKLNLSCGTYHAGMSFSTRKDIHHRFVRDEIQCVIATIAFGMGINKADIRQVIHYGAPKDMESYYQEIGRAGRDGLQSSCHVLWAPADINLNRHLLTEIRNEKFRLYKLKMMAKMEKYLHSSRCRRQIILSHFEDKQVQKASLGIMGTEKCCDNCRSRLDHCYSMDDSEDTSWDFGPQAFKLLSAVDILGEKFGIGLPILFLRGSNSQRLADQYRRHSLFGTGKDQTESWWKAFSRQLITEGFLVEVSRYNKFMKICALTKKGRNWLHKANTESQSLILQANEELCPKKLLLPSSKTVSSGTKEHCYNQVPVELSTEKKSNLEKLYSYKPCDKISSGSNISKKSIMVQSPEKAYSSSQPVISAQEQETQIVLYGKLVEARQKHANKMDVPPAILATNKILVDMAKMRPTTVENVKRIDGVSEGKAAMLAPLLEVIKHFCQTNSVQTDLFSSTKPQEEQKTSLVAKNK

Bifunctional 3'-5' exonuclease/ATP-dependent helicase WRN, sequence (Q14191 whole entry): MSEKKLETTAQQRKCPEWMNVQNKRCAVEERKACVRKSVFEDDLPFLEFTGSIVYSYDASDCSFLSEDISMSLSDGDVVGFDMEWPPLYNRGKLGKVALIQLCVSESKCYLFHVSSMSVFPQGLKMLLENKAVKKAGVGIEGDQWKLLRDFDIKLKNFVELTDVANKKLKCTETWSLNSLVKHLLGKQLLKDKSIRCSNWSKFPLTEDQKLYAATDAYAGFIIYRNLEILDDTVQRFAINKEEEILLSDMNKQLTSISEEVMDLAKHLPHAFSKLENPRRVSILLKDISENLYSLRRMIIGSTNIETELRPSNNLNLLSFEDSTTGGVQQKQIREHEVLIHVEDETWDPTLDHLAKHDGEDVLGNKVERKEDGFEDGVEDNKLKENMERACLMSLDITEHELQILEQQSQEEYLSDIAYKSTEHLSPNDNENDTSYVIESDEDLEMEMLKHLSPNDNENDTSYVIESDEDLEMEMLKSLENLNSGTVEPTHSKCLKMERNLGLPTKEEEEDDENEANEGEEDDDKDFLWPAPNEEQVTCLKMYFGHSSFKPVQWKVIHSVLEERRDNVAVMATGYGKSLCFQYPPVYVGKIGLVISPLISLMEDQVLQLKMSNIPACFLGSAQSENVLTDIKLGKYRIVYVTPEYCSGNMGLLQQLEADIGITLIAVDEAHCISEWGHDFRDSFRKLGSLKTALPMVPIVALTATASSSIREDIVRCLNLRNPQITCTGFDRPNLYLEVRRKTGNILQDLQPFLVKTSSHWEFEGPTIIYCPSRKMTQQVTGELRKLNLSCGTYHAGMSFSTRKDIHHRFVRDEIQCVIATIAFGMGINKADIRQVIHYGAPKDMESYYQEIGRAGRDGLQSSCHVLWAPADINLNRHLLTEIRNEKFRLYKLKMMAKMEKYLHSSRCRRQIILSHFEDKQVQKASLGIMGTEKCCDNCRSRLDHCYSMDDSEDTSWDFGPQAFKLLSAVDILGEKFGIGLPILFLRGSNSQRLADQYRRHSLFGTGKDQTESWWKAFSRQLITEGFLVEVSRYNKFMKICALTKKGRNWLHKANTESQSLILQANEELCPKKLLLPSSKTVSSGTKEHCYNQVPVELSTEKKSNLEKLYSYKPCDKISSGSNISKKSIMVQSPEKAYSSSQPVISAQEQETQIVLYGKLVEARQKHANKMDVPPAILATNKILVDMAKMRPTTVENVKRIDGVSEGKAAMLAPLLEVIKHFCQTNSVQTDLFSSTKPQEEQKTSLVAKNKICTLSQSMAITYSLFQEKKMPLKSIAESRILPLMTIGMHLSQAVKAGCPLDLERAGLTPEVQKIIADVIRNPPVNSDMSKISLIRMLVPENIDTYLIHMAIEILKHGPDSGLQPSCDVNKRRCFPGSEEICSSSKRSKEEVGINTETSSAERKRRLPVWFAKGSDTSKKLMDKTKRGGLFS

SMILES	IC50 [1]	IC50 [2]
CCc1c(N2CCN(C(C)=O)CC2)c(=O)n2nc(-c3ccc4c(c3)OCO4)nc2n1CC(=O)Nc1ccc(C(F)(F)F)cc1Cl [WO2025049746, Example 89]	0.25 µM	0.24 µM
CCc1c(N2CCN(C(=O)c3ncnc(C)c3O)CC2)c(=O)n2nc(C3CC3)nc2n1CC(=O)Nc1ccc(C(F)(F)F)cc1C [WO2025049746, Example 78]	0.194 µM	0.0701 µM
CCc1c(N2CCN(C(=O)c3ccccc3NS(C)(=O)=O)CC2)c(=O)n2nc(-c3cccc4c3OCCO4)nc2n1CC(=O)Nc1ccc(C(F)(F)F)cc1Cl [WO2025049746, Example 378]	0.154 µM	0.096 µM
CCc1c(N2CCN(C(=O)c3ncnc(C)c3O)CC2)c(=O)n2nc(C3=CCOCC3)nc2n1CC(=O)NC12CC(CCC(F)(F)F)(C1)C2 [WO2025049746, Example 361]	29.7 µM	29.7 µM
CCc1c(N2CCN(C(=O)c3ncnc(C)c3O)CC2)c(=O)n2nc(N3CCC3)nc2n1CC(=O)Nc1ccc(C(F)(F)F)cc1Cl [WO2025049746, Example 28]	0.0909 µM	0.0603 µM
CCc1c(N2CCN(C(=O)c3ncnc(C)c3O)CC2)c(=O)n2nc(-c3ccc4scnc4c3)nc2n1CC(=O)Nc1ccc(C(F)(F)F)cc1Cl [WO2025049746, Example 288]	0.04 µM	0.043 µM
CCc1c(N2CCN(C(=O)c3ncnc(C)c3O)CC2)c(=O)n2nc(-c3cnc4[nH]cc(Cl)c4c3)nc2n1CC(=O)Nc1ccc(C(F)(F)F)cc1Cl [WO2025049746, Example 328]	0.042 µM	0.053 µM
CCc1c(N2CCN(C(=O)c3ncnc(C)c3O)CC2)c(=O)n2nc(-c3ccc4c(c3)COC43CN(C)C3)nc2n1CC(=O)Nc1ccc(C(F)(F)F)cc1Cl [WO2025049746, Example 209]	0.056 µM	0.045 µM
CCc1c(N2CCN(C(=O)c3ncnc(C)c3O)CC2)c(=O)n2nc(-c3cccc4c3COCC4)nc2n1CC(=O)Nc1ccc(C(F)(F)F)cc1Cl [WO2025049746, Example 5]	0.0869 µM	0.0599 µM
CCc1c(N2CCN(C(=O)c3ncnc(C)c3O)CC2)c(=O)n2nc(C3=CCOCC3)nc2n1CC(=O)Nc1ccc(SC(F)(F)F)cc1 [WO2025049746, Example 356]	0.875 µM	0.634 µM

The remaining lines, values ahead:

IC50 [1]	IC50 [2]	SMILES
0.04 µM	0.048 µM	CCc1c(N2CCN(C(=O)c3ccnc(C)c3O)CC2)c(=O)n2nc(-c3ccc4c(c3)COC4(C)C)nc2n1CC(=O)Nc1ccc(C(F)(F)F)cc1Cl [WO2025049746, Example 455]
0.03 µM	0.025 µM	CCc1c(N2CCN(C(=O)c3ncnc(C)c3O)CC2)c(=O)n2nc(-c3ccc4c(c3)COC4)nc2n1CC(=O)Nc1ccc(C=C(F)F)cc1Cl [WO2025049746, Example 421]
0.035 µM	0.038 µM	CCc1c(N2CCN(C(=O)c3ncnc(C)c3O)CC2)c(=O)n2nc(-c3cnc4nn(C)cc4c3)nc2n1CC(=O)Nc1ccc(C(F)(F)F)cc1Cl [WO2025049746, Example 313]
0.036 µM	0.03 µM	CCc1c(N2CCN(C(=O)c3ncnc(C)c3O)CC2)c(=O)n2nc(C3=CCOCC3)nc2n1CC(=O)Nc1ccc(SC(F)(F)F)cc1Cl [WO2025049746, Example 364]
0.026 µM	0.025 µM	CCc1c(N2CCN(C(=O)c3ncnc(C)c3O)CC2)c(=O)n2nc(-c3cc4c(cc3F)OCC4)nc2n1CC(=O)Nc1ccc(C(F)(F)F)cc1Cl [WO2025049746, Example 169]
0.03 µM	0.025 µM	CCc1c(N2CCN(C(=O)c3ncnc(C)c3O)CC2)c(=O)n2nc(-c3ccc4c(c3)COC4)nc2n1CC(=O)Nc1ccc(Cl)c(OC(F)F)c1Cl [WO2025049746, Example 407]
0.0385 µM	0.0445 µM	CCc1c(N2CCN(S(=O)(=O)C3CC3)CC2)c(=O)n2nc(C3=CCOCC3)nc2n1CC(=O)Nc1ccc(C(F)(F)F)cc1Cl [WO2025049746, Example 60]
0.03 µM	0.056 µM	CCc1c(N2CCN(C(=O)c3ncnc(C)c3O)CC2)c(=O)n2nc(-c3coc4ccccc34)nc2n1CC(=O)Nc1ccc(C(F)(F)F)cc1Cl [WO2025049746, Example 327]
